Data taken from patent US20260262643A1, “HERBICIDAL BENZOXAZINES” (FMC CORPORATION, priority 2022, published 2026).

Key:
barnyardgrass [1] = test: Test C postemergence; format: in vivo, Echinochloa crusgalli; conditions: 10 days
Summary of the method: (§1)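 Greenhouse herbicide screen, 10-day duration. Test chemicals in solvent/surfactant blend were sprayed onto soil at sowing (pre) or onto 2–10 cm seedlings at one to two leaves (post); injury scored visually against controls, 0 no effect to 100 complete control.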

soybean [2] = test: Test C preemergence; format: in vivo, Glycine max; conditions: preemergence, 0 to 100 scale (0 no effect, 100 complete control)
Summary of the method: as §1

blackgrass [3] = test: Test C postemergence; format: in vivo, Alopecurus myosuroides; conditions: 10 days
Summary of the method: as §1

horseweed = test: Test C postemergence; format: in vivo, Erigeron canadensis; conditions: 10 days
Summary of the method: as §1

blackgrass [4] = test: Test C preemergence; format: in vivo, Alopecurus myosuroides; conditions: 0 to 100 scale (0 no effect, 100 complete control); for Plant response rating, Blackgrass: Preemergence, 500 g ai/ha, visual rating after 10 days; for Blackgrass plant response rating: Test C, preemergence, 125 g ai/ha
Summary of the method: as §1

ragweed [5] = test: Test C preemergence; format: in vivo, Ambrosia artemisiifolia; conditions: preemergence, 0 to 100 scale (0 no effect, 100 complete control)
Summary of the method: as §1

pigweed, palmer [6] = test: Test C postemergence; format: in vivo, Amaranthus palmeri; conditions: 125 g ai/ha, postemergence, 10 days; 0 to 100 scale, 0 no effect, 100 complete control
Summary of the method: as §1

soybean [7] = test: Test C postemergence; format: in vivo, Glycine max; conditions: 125 g ai/ha, postemergence, 10 days; 0 to 100 scale, 0 no effect, 100 complete control
Summary of the method: as §1

wheat [8] = test: Test C postemergence; format: in vivo, Triticum aestivum; conditions: 125 g ai/ha, postemergence, 10 days; 0 to 100 scale, 0 no effect, 100 complete control
Summary of the method: as §1

green foxtail [9] = test: Test C preemergence; format: in vivo, Setaria viridis; conditions: preemergence, 0 to 100 scale (0 no effect, 100 complete control)
Summary of the method: as §1

oat, wild [10] = test: Test C postemergence; format: in vivo, Avena fatua; conditions: 125 g ai/ha, postemergence, 10 days; 0 to 100 scale, 0 no effect, 100 complete control
Summary of the method: as §1

green foxtail [11] = test: Test C postemergence; format: in vivo, Setaria viridis; conditions: 10 days
Summary of the method: as §1

sedge, umbrella = test: Test D flooded paddy test; format: in vivo, Cyperus difformis; conditions: 250 g ai/ha, applied to paddy water, visual rating after 13 to 14 days, scale 0 to 100 (0 no effect, 100 complete control)
Summary of the method: (§2)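 Plants at the 2-leaf stage were grown in pots flooded to 3 cm, and compound was applied directly into the paddy water, with depth kept throughout. After 13–14 days in a greenhouse, injury was rated visually against untreated controls on a 0–100 scale (100 = complete control); a dash means not tested.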

pigweed, palmer [12] = test: Test C preemergence; format: in vivo, Amaranthus palmeri; conditions: preemergence, 0 to 100 scale (0 no effect, 100 complete control)
Summary of the method: as §1

ducksalad = test: Test D flooded paddy test; format: in vivo, Heteranthera limosa; conditions: 250 g ai/ha, applied to paddy water, visual rating after 13 to 14 days, scale 0 to 100 (0 no effect, 100 complete control)
Summary of the method: as §2

corn [13] = test: Test C postemergence; format: in vivo, Zea mays; conditions: 10 days
Summary of the method: as §1

barnyardgrass [14] = test: Test D flooded paddy test; format: in vivo, Echinochloa crus-galli; conditions: 250 g ai/ha, applied to paddy water, visual rating after 13 to 14 days, scale 0 to 100 (0 no effect, 100 complete control)
Summary of the method: as §2

wheat [15] = test: Test C preemergence; format: in vivo, Triticum aestivum; conditions: preemergence, 0 to 100 scale (0 no effect, 100 complete control)
Summary of the method: as §1

ragweed [16] = test: Test C postemergence; format: in vivo, Ambrosia artemisiifolia; conditions: 125 g ai/ha, postemergence, 10 days; 0 to 100 scale, 0 no effect, 100 complete control
Summary of the method: as §1

corn [17] = test: Test C preemergence; format: in vivo, Zea mays; conditions: preemergence, 0 to 100 scale (0 no effect, 100 complete control)
Summary of the method: as §1

rice = test: Test D flooded paddy test; format: in vivo, Oryza sativa; conditions: 250 g ai/ha, applied to paddy water, visual rating after 13 to 14 days, scale 0 to 100 (0 no effect, 100 complete control)
Summary of the method: as §2

kochia [18] = test: Test C preemergence; format: in vivo, Bassia scoparia; conditions: preemergence, 0 to 100 scale (0 no effect, 100 complete control)
Summary of the method: as §1

ryegrass, Italian [19] = test: Test C preemergence; format: in vivo, Lolium multiflorum; conditions: preemergence, 0 to 100 scale (0 no effect, 100 complete control)
Summary of the method: as §1

kochia [20] = test: Test C postemergence; format: in vivo, Bassia scoparia; conditions: 125 g ai/ha, postemergence, 10 days; 0 to 100 scale, 0 no effect, 100 complete control
Summary of the method: as §1

oat, wild [21] = test: Test C preemergence; format: in vivo, Avena fatua; conditions: preemergence, 0 to 100 scale (0 no effect, 100 complete control)
Summary of the method: as §1

galium = test: Test C postemergence; format: in vivo, Galium aparine; conditions: 10 days
Summary of the method: as §1

ryegrass, Italian [22] = test: Test C postemergence; format: in vivo, Lolium multiflorum; conditions: 125 g ai/ha, postemergence, 10 days; 0 to 100 scale, 0 no effect, 100 complete control
Summary of the method: as §1

barnyardgrass [23] = test: Test C preemergence; format: in vivo, Echinochloa crusgalli; conditions: 0 to 100 scale (0 no effect, 100 complete control); for Plant response rating, Barnyardgrass: Preemergence, 500 g ai/ha, visual rating after 10 days; for Barnyardgrass plant response rating: Test C, preemergence, 125 g ai/ha
Summary of the method: as §1

[24] = 125 g ai/ha, postemergence, 0 to 100 scale, 0 no effect, 100 complete control
[25] = Postemergence, 500 g ai/ha, visual 0 to 100 scale (0 no effect, 100 complete control)

CCc1ccc(-n2cnc(C(C)(C)O)n2)cc1C(=O)N1C[C@H](C)Oc2c(C)cccc21 [Compound 279]
Plant response rating, Barnyardgrass (barnyardgrass [1]; [24]): 90
Plant response rating, Barnyardgrass (barnyardgrass [1]; [25]): 100
Soybean plant response rating (soybean [2]; 500 g ai/ha): 100
Soybean plant response rating (soybean [2]; Test C, 125 g ai/ha): 90
Plant response rating, Blackgrass (blackgrass [3]; [24]): 80
Plant response rating, Blackgrass (blackgrass [3]; [25]): 90
Plant response rating, Horseweed (horseweed; [24]): 0
Plant response rating, Horseweed (horseweed; [25]): 20
Plant response rating, Blackgrass (blackgrass [4]): 90
Blackgrass plant response rating (blackgrass [4]): 70
Ragweed plant response rating (ragweed [5]; 500 g ai/ha): 90
Ragweed plant response rating (ragweed [5]; Test C, 125 g ai/ha): 70
Plant response rating, Pigweed, Palmer (pigweed, palmer [6]): 70
Plant response rating, Soybean (soybean [7]): 100
Plant response rating, Wheat (wheat [8]): 80
Foxtail, Green plant response rating (green foxtail [9]; 500 g ai/ha): 100
Foxtail, Green plant response rating (green foxtail [9]; Test C, 125 g ai/ha): 100
Plant response rating, Oat, Wild (oat, wild [10]): 80
Plant response rating, Foxtail, Green (green foxtail [11]; [24]): 90
Plant response rating, Foxtail, Green (green foxtail [11]; [25]): 90
Plant response rating, Sedge, Umbrella (Flood) (sedge, umbrella): 100
Pigweed, Palmer plant response rating (pigweed, palmer [12]; 500 g ai/ha): 100
Pigweed, Palmer plant response rating (pigweed, palmer [12]; Test C, 125 g ai/ha): 100
Plant response rating, Ducksalad (Flood) (ducksalad): 100
Plant response rating, Corn (corn [13]; [24]): 90
Plant response rating, Corn (corn [13]; [25]): 90
Plant response rating, Barnyardgrass (Flood) (barnyardgrass [14]): 60
Wheat plant response rating (wheat [15]; 500 g ai/ha): 90
Wheat plant response rating (wheat [15]; Test C, 125 g ai/ha): 60
Plant response rating, Ragweed (ragweed [16]): 50
Corn plant response rating (corn [17]; 500 g ai/ha): 80
Corn plant response rating (corn [17]; Test C, 125 g ai/ha): 50
Plant response rating, Rice (Flood) (rice): 35
Kochia plant response rating (kochia [18]; 500 g ai/ha): 90
Kochia plant response rating (kochia [18]; Test C, 125 g ai/ha): 70
Ryegrass, Italian plant response rating (ryegrass, Italian [19]; 500 g ai/ha): 90
Ryegrass, Italian plant response rating (ryegrass, Italian [19]; Test C, 125 g ai/ha): 90
Plant response rating, Kochia (kochia [20]): 20
Oat, Wild plant response rating (oat, wild [21]; 500 g ai/ha): 90
Oat, Wild plant response rating (oat, wild [21]; Test C, 125 g ai/ha): 80
Plant response rating, Galium (galium; [24]): 100
Plant response rating, Galium (galium; [25]): 100
Plant response rating, Ryegrass, Italian (ryegrass, Italian [22]): 90
Plant response rating, Barnyardgrass (barnyardgrass [23]): 100
Barnyardgrass plant response rating (barnyardgrass [23]): 90

COc1ccc(-n2cnc(C(C)(C)O)n2)cc1C(=O)N1C[C@H](C)Oc2c(C)cccc21 [Compound 280]
Plant response rating, Barnyardgrass (barnyardgrass [1]; [24]): 50
Plant response rating, Barnyardgrass (barnyardgrass [1]; [25]): 90
Soybean plant response rating (soybean [2]; 500 g ai/ha): 100
Soybean plant response rating (soybean [2]; Test C, 125 g ai/ha): 90
Plant response rating, Blackgrass (blackgrass [3]; [24]): 80
Plant response rating, Blackgrass (blackgrass [3]; [25]): 100
Plant response rating, Horseweed (horseweed; [24]): 30
Plant response rating, Horseweed (horseweed; [25]): 60
Plant response rating, Blackgrass (blackgrass [4]): 80
Blackgrass plant response rating (blackgrass [4]): 70
Ragweed plant response rating (ragweed [5]; 500 g ai/ha): 100
Ragweed plant response rating (ragweed [5]; Test C, 125 g ai/ha): 90
Plant response rating, Pigweed, Palmer (pigweed, palmer [6]): 70
Plant response rating, Soybean (soybean [7]): 100
Plant response rating, Wheat (wheat [8]): 80
Foxtail, Green plant response rating (green foxtail [9]; 500 g ai/ha): 100
Foxtail, Green plant response rating (green foxtail [9]; Test C, 125 g ai/ha): 100
Plant response rating, Oat, Wild (oat, wild [10]): 80
Plant response rating, Foxtail, Green (green foxtail [11]; [24]): 60
Plant response rating, Foxtail, Green (green foxtail [11]; [25]): 90
Plant response rating, Sedge, Umbrella (Flood) (sedge, umbrella): 95
Pigweed, Palmer plant response rating (pigweed, palmer [12]; 500 g ai/ha): 100
Pigweed, Palmer plant response rating (pigweed, palmer [12]; Test C, 125 g ai/ha): 100
Plant response rating, Ducksalad (Flood) (ducksalad): 70
Plant response rating, Corn (corn [13]; [24]): 90
Plant response rating, Corn (corn [13]; [25]): 90
Plant response rating, Barnyardgrass (Flood) (barnyardgrass [14]): 25
Wheat plant response rating (wheat [15]; 500 g ai/ha): 90
Wheat plant response rating (wheat [15]; Test C, 125 g ai/ha): 70
Plant response rating, Ragweed (ragweed [16]): 70
Corn plant response rating (corn [17]; 500 g ai/ha): 60
Corn plant response rating (corn [17]; Test C, 125 g ai/ha): 30
Plant response rating, Rice (Flood) (rice): 20
Kochia plant response rating (kochia [18]; 500 g ai/ha): 100
Kochia plant response rating (kochia [18]; Test C, 125 g ai/ha): 90
Ryegrass, Italian plant response rating (ryegrass, Italian [19]; 500 g ai/ha): 90
Ryegrass, Italian plant response rating (ryegrass, Italian [19]; Test C, 125 g ai/ha): 90
Plant response rating, Kochia (kochia [20]): 60
Oat, Wild plant response rating (oat, wild [21]; 500 g ai/ha): 90
Oat, Wild plant response rating (oat, wild [21]; Test C, 125 g ai/ha): 60
Plant response rating, Galium (galium; [24]): 100
Plant response rating, Galium (galium; [25]): 100
Plant response rating, Ryegrass, Italian (ryegrass, Italian [22]): 90
Plant response rating, Barnyardgrass (barnyardgrass [23]): 100
Barnyardgrass plant response rating (barnyardgrass [23]): 100
